Data on 13 compounds can be found in patent US20060199864A1, “Selection of pH-dependent compounds for in vivo therapy” (priority 2004, published 2006).

As usually defined, the ED50 is the dose at which the effect has come halfway, by size or by number of responders.

Series [1] is described as follows: Locomotor activity of rats (light beam breaks). The note with it: for effects on locomotor activity: monitored 2 hours after injection; for effects on locomotor activity (positive control): varying doses IP. As for the experimental part:
The Locomotor Activity Index is the total number of beam breaks during the trial divided by 1000.
Locomotor activity was monitored after injection for 2 hours.

The target in series [2] is T1, NR1/NR2A (Rattus norvegicus, UniProt P35439+Q00959). Conditions: FIG. 4.
T1 sequence (Q00959 23-1464, other chains not shown): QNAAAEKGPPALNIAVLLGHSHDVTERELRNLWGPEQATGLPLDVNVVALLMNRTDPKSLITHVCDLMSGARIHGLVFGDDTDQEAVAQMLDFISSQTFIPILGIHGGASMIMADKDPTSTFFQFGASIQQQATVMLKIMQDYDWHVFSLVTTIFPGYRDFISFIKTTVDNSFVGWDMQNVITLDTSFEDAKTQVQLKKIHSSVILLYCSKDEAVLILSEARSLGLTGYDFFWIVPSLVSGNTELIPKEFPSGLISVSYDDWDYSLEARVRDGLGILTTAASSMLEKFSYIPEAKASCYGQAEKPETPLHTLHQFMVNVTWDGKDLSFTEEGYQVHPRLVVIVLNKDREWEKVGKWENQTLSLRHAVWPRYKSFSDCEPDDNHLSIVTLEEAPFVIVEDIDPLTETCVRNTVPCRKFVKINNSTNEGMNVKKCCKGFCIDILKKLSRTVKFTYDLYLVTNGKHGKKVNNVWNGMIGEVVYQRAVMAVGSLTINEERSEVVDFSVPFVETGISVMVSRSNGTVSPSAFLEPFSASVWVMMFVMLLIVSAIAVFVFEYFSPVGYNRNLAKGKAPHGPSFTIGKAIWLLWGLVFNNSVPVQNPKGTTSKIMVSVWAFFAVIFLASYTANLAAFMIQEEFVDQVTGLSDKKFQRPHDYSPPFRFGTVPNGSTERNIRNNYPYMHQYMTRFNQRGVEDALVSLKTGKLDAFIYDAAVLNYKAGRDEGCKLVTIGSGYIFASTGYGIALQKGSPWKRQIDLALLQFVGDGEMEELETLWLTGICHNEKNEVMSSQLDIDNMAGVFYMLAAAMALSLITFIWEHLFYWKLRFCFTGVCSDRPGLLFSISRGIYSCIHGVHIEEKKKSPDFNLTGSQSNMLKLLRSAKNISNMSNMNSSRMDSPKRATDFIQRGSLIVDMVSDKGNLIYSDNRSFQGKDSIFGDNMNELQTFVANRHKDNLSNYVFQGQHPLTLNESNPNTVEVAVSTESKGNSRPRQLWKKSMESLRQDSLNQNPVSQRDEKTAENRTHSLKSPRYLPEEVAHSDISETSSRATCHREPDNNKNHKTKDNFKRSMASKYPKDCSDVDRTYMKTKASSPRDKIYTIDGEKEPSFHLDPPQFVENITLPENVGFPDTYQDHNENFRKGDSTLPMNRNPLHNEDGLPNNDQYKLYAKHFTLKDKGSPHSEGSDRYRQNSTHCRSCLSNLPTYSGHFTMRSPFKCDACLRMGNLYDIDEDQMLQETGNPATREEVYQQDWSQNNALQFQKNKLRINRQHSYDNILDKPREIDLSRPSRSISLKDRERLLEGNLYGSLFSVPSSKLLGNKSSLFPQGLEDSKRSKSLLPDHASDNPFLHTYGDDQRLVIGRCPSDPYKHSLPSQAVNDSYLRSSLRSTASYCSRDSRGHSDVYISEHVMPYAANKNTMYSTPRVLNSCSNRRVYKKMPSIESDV
Procedure: Stage V and VI oocytes were surgically removed from the ovaries of large, well-fed and healthy Xenopus laevis anesthetized with 3-amino-benzoic acid ethyl ester (1 gm/l). Clusters of oocytes were incubated with 292 U/ml Worthington (Freehold, N.J.) type IV collagenase or 1.3 mg/ml collagenase (Life Technologies, Gaithersburg, Md.; 17018-029) for 2 hr in Ca2+-free solution comprised of (in mM) 115 NaCl, 2.5 KCl, and 10 HEPES, pH 7.5, with slow agitation to remove the follicular cell layer. Oocytes were then washed extensively in the same solution supplemented with 1.8 mM CaCl2 and maintained in Barth's solution comprised of (in mM): 88 NaCl, 1 KCl, 24 NaHCO3, 10 HEPES, 0.82 MgSO4, 0.33 Ca(NO3)2, and 0.91 CaCl2 and supplemented with 100 ug/ml gentamycin, 40 ug/ml streptomycin, and 50 ug/ml penicillin. Oocytes were manually defolliculated and injected within 24 hr of isolation with 5 ng of NR1 subunit and 10 ng of NR2 subunit in a 50 nl volume, and incubated in Barth's solution at 18° C. for 3-7 d. Glass injection pipettes had tip sizes ranging from 10-20 microns, and were backfilled with mineral oil.
These stock solutions were subsequently diluted to the appropriate concentration range in a working solution comprised of 90 mM NaCl, 3 mM KCl, 5 mM HEPES, 0.5 mM BaCl2, 10 uM EDTA, 100 uM glutamate, 50 uM glycine (pH either 6.9 or 7.6 adjusted with NAOH or HCl as appropriate). […]
The target of a further series is T2, NR1/NR2D (Rattus norvegicus, UniProt P35439+Q62645).
T2 construct: expressed in transfected cells
T2 sequence (Q62645 28-1323, other chains not shown): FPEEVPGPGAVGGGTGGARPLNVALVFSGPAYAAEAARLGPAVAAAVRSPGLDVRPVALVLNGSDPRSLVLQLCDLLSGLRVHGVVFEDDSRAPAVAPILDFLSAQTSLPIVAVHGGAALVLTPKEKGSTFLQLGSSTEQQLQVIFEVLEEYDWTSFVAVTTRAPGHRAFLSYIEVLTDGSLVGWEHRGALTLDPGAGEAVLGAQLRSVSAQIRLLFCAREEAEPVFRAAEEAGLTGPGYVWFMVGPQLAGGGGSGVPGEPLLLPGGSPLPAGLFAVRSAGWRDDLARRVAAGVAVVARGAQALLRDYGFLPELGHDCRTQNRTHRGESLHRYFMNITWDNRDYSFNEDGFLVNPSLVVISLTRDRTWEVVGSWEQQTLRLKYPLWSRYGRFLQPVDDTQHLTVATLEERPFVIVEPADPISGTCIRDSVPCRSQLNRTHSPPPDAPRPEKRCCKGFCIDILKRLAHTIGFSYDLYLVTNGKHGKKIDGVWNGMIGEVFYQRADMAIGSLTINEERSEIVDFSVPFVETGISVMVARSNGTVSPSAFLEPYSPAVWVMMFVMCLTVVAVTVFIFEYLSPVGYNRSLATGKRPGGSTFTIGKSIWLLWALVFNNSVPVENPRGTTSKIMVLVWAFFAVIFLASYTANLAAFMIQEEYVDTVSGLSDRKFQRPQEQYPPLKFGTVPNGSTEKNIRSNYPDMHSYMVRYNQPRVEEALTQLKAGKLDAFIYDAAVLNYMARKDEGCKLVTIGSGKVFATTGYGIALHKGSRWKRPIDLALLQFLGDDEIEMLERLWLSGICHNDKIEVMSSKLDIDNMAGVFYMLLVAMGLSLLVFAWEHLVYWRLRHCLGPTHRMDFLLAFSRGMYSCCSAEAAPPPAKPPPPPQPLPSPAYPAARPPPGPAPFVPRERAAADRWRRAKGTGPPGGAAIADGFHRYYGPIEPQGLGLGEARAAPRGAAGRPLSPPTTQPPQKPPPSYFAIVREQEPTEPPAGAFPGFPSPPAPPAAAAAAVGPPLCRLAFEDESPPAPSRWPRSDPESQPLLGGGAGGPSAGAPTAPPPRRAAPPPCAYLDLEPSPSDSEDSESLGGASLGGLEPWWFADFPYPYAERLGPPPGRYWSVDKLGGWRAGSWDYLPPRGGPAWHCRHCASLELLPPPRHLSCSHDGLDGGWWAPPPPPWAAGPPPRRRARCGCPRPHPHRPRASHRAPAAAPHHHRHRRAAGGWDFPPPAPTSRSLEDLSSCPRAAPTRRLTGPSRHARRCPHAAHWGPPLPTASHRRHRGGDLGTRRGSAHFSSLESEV
As to the kind of experiment: NMDA receptor mediated currents, NR1/NR2D. Format: cell-based. The note with it: 3 uM.

The test system of the next series is AMPA receptors. As to the kind of experiment: Two electrode voltage clamp, Xenopus oocytes injected with AMPA receptor subunits. Conditions: 3 uM coadministered with glutamate. Type of series: cell-based. As for the experimental part:
(§1) Glutamate or domoate induced current recordings were performed using two electrode voltage clamp, and 3 uM of Compound 93-4 coadministered with agonist (glutamate for AMPA receptors, domoate for kainate receptors).

A further series concerns kainate receptors. Put plainly: Two electrode voltage clamp, Xenopus oocytes injected with kainate receptor subunits. Type of series: cell-based. The note with it: 3 uM coadministered with domoate. As for the experimental part:
as §1

For a further series, the target named is T3, NR1/NR2B (Rattus norvegicus, UniProt P35439+Q00960).
T3 construct: expressed in transfected cells
T3 sequence (Q00960 27-1482, other chains not shown): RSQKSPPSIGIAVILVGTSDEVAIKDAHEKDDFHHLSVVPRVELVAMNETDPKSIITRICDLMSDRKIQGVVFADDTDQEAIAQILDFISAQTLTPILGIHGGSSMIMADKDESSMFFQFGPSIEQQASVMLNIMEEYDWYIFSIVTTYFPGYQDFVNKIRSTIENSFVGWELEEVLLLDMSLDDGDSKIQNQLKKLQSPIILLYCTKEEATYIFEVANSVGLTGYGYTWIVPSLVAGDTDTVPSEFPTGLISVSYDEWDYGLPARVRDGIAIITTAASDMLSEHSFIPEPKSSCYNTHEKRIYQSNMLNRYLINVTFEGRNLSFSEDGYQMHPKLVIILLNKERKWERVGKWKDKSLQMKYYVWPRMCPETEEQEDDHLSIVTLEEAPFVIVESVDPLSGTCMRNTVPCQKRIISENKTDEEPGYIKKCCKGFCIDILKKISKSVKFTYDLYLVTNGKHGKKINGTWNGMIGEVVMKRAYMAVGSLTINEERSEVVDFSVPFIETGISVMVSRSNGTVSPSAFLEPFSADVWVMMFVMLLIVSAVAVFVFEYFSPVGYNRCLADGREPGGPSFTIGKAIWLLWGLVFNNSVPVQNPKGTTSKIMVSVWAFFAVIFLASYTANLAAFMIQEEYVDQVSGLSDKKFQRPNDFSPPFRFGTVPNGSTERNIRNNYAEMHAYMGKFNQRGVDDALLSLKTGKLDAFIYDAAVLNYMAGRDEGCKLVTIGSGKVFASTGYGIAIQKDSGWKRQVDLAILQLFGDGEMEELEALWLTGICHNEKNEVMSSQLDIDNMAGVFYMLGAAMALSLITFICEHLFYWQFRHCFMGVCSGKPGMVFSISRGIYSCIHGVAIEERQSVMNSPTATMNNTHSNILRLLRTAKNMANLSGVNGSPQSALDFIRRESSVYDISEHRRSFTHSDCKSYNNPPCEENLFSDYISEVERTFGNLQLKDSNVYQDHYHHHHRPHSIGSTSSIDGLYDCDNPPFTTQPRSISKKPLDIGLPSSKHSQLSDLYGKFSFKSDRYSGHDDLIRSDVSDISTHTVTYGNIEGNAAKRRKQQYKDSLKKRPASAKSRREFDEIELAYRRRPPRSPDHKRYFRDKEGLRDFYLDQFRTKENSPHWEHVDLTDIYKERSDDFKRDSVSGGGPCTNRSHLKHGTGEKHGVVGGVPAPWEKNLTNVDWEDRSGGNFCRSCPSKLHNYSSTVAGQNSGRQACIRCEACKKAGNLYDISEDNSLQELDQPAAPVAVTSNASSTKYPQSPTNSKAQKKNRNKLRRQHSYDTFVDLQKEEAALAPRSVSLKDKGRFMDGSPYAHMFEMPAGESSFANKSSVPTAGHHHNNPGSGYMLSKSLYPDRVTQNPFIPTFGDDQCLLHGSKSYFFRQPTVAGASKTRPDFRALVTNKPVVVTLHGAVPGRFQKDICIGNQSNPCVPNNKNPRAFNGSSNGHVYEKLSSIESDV
Put plainly: NMDA receptor mediated currents, NR1/NR2B. Conditions: 3 uM; NR1/NR2B subunits. Type of series: cell-based.

Series [3] has as its target T1, NR1/NR2A. Put plainly: NMDA receptor mediated currents, NR1/NR2A. Format: cell-based. On the set-up: expressed in transfected cells. The note with it: 3 uM.
Series [4] is described as follows: Spinal Nerve Ligation (SNL) model, mechanical allodynia (von Frey). Conditions: for Injured paw - von Frey threshold: mean ± SEM. Type of series: in vivo, Sprague-Dawley rats. As for the experimental part:
Animals: Male Sprague-Dawley rats (Hsd:Sprague-Dawley®™SD®™, Harlan, Indianapolis, Ind., U.S.A.) weighing 100±10 g on surgery day and 250±10 g on testing day were housed three per cage. Animals had free access to food and water and were maintained on a 12:12 h light/dark schedule. The animal colony was maintained at 21° C. and 60% humidity. All experiments were conducted in accordance with the International Association for the Study of Pain guidelines and were approved by the University of Minnesota Animal Care and Use Committee.
Drugs and dosing solutions: The drugs were dissolved in 1% v/v DMSO and 66% v/v PEG 400 in distilled water. Compounds were administered by i.p. route.
Induction of chronic neuropathic pain: The Spinal Nerve Ligation (SNL) model (Kim and Chung 1992 Pain 50:355-63.) was used to induce chronic neuropathic pain. The animals were anesthetized with isoflurane, the left […] transverse process was removed, and the L5 and L6 spinal nerves were tightly ligated with 6-0 silk suture. The wound was then closed with internal sutures and external staples. Wound clips were removed 10 days following surgery.
Mechanical allodynia testing: Baseline and post-treatment values for non-noxious mechanical sensitivity were evaluated using 8 Semmes-Weinstein filaments (Stoelting, Wood Dale, Ill., USA) with varying stiffness (0.4, 0.7, 1.2, 2.0, 3.6, 5.5, 8.5, and 15 g) according to the up-down method (Chaplan, Bach et al. 1994 J Neurosci Methods 53: 55-63). Animals were placed on a perforated metallic platform and allowed to acclimate to their surroundings for a minimum of 30 minutes before testing. The mean and standard error of the mean (SEM) were determined for each animal in each treatment group. Since this stimulus is normally not considered painful, significant injury-induced increases in responsiveness in this test are interpreted as a measure of mechanical allodynia.
(§2) Experimental design: von Frey baseline measurements were made 30 minutes and 24 hours prior to drug administration respectively. Additional von Frey measurements were made at 30, 60, 120 and 240 min. The timeline for testing is summarized below. The experimental groups were: ·vehicle (1% DMSO+66% PEG 400 in distilled water, i.p., 4 ml/kg, n=10)·30 mg/kg Compound 93-31 test (i.p., 4 ml/kg, n=10)·100 mg/kg Compound 93-31 test (i.p., 4 ml/kg, n=10)·30 mg/kg Compound 93-97 test (i.p., 4 ml/kg, n=10)·100 mg/kg Compound 93-97 test (i.p., 4 ml/kg, n=10)·100 mg/kg Gabapentin (i.p., 4 ml/kg, n=12) (Total rats: 62). [drawing 42]
Data analysis: Statistical analyses were conducted using Prism™ 4.01 (GraphPad, San Diego, Calif., USA). Mechanical allodynia of the injured paw was determined by comparing values observed in the contralateral and ipsilateral paws within the vehicle group. Stability of vehicle group injured paw values over time was tested using the Friedman two-way analysis of variance by rank. Drug effect was analyzed at each time point by carrying out a Kruskal-Wallis one-way analysis of variance by rank followed by a Dunn's post hoc test.
Testing for mechanical allodynia (von Frey) was initiated 14 days after SNL surgery. Tests were performed on both injured (ipsilateral) and normal (contralateral) paws at baseline (30 minutes before drug administration) and 30, 60, 120 and 240 minutes after a single drug administration.

A short description of series [5]: Side effects observed in the SNL study. Type of series: in vivo, Sprague-Dawley rats. As for the experimental part:
as §2
The side effects observed were writhing and stretching (8 observations). These side effects were most commonly seen for the first few minutes (˜5 minutes) following i.p. drug administration. […] Some side effects were observed while measuring the endpoints. The most common was stretching/writhing which may be a sign of some visceral pain or hypersensitivity. […] It seems likely to be associated with i.p. administration of the vehicle in a subset of animals. This seemed relatively rare, short lived (<5 min), and the magnitude was not large enough to interfere with measurement of the endpoint.

For series [6], the system named is primary cultures of rat cerebral cortex. Conditions: pH 6.5 vs pH 7.5; Mott et al. 1998; cited from earlier work.
For series [7] the following is noted: rats; Dogan et al.; cited from earlier work.
The conditions of series [8]: cats; highest dose tested; Gotti et al.; cited from earlier work.
For series [9] the following is noted: cats and rats; highest dose tested; Gotti et al.; cited from earlier work.

Entries after “also recorded” stand apart in the source; their conditions may differ. Like-named read-outs stand apart in the source and are kept apart here.

Consider `C[C@@]12N[C@@H](Cc3ccccc31)c1ccccc12` [(−)MK801, reference compound], for which, in [1] (compared to vehicle injected control animals), the “fold less potent than (+)MK801 in causing the induction of locomotor activity” value is given as “at least 10 fold”. For the same compound, at NR1/NR2A [2], the “mean within the shaded area (criteria for improved drug performance) for NR1/NR2A” value is “fall within the shaded area”.
For the compound `CS(=O)(=O)Nc1ccc(OC[C@@H](O)CNCCc2ccc(Cl)c(Cl)c2)cc1` [Compound 93-4], the “effects on locomotor activity” value in series [1] (3-300 mg/kg IP) was “no significant effects”. Also, the “inhibiting NMDA receptor mediated currents” value is on record as “not NR1/NR2A or NR1/NR2D” against NR1/NR2D, “effective at inhibiting” against NR1/NR2B and “not NR1/NR2A” against NR1/NR2A [3]. Further, the “reduction in the agonist induced response” value with AMPA receptors and in the series on kainate receptors was “No reduction” in each case.
Take `CCN(CCc1ccc(Cl)c(Cl)c1)C[C@H](O)COc1ccc(NS(C)(=O)=O)cc1` [Compound 93-5]: the “effects on locomotor activity” value in series [1] (3-300 mg/kg IP) is “no significant effects”.
Consider `CS(=O)(=O)Nc1ccc(OC[C@@H](O)CN(CCO)CCc2ccc(Cl)c(Cl)c2)cc1` [Compound 93-8], for which the “effects on locomotor activity” value in series [1] (30-300 mg/kg IP) is on record as “no significant effects”.
`CCCCN(CCc1ccc(Cl)c(Cl)c1)C[C@H](O)COc1ccc(NS(C)(=O)=O)cc1` [Compound 93-31]: the “analgesic effect, injured paw” value in series [4] (30 mg/kg i.p., any time point studied) is reported as “no analgesic effect”. Besides, the “Injured paw - von Frey threshold” value in series [4] (30 mg/kg i.p., 30 min) is given as 1.9 ± 0.3; in [4] (30 mg/kg i.p., 60 min) it was 1.7 ± 0.1; in [4] (30 mg/kg i.p., 120 min), 0.8 ± 0.2; in series [4] (30 mg/kg i.p., 240 min), 1.1 ± 0.3; in series [4] (30 mg/kg i.p., Baseline) it was 2.4 ± 0.4; in series [4] (100 mg/kg i.p., 30 min) it was 9.3 ± 1.5. The “Injured paw - von Frey threshold” value was 8.9 ± 1.7 in series [4] (100 mg/kg i.p., 60 min); 1.9 ± 0.3 in series [4] (100 mg/kg i.p., 120 min); 0.8 ± 0.2 in series [4] (100 mg/kg i.p., 240 min); 1.7 ± 0.3 in series [4] (100 mg/kg i.p., Baseline). Besides, in [4] (100 mg/kg i.p.), the “analgesia / attenuation of mechanical allodynia, injured paw” value was “observable analgesia at 30 and 60 min; also recorded: appeared to attenuate mechanical allodynia; also recorded: attenuated mechanical allodynia”. The duration of action in series [4] (100 mg/kg i.p.) turned out to be 60 min. This compound registered an onset in series [4] (100 mg/kg i.p.) of 30 min. Moreover, in [4] (100 mg/kg i.p.), the “peak threshold relative to the normal paw” value is recorded as “approximately half of that seen in the normal paw”. Further, in series [4] (30 and 100 mg/kg i.p.), the “effect on von Frey thresholds measured in the normal paw” value is given as “no effect on the normal paw”. Also, the ED50 in series [4] (Rattus norvegicus, ip, assuming complete reversal may be achieved with higher doses) is ~100 mg/kg. Further, the “effects on locomotor activity” value in series [1] (3-300 mg/kg IP) is recorded as “no significant effects”. Also, in [1] (IP, doses up to 300 mg/kg, FIG. 5), the “effect on locomotor activity index” value is listed as “no significant effect”. For the same compound, the “Side Effects: stretching/writhing (animals affected/group)” value (shortened to “Side Effects: stretching/writhing”) in [5] (30 mg/kg i.p.) was 0/10 stretching/writhing.
`CS(=O)(=O)Nc1ccc(OC[C@H](O)CN(CCc2ccc(Cl)c(Cl)c2)Cc2ccccc2O)cc1` [Compound 93-40]: the “effects on locomotor activity” value in series [1] (30 mg/kg IP) is recorded as “no significant effects”.
With `CS(=O)(=O)Nc1ccc(OCC(O)CN(CCc2ccc(Cl)c(Cl)c2)Cc2cccc(O)c2)cc1` (stereo not shown) [Compound 93-41], the “effects on locomotor activity” value in [1] (30-300 mg/kg IP) was “no significant effects”.
As to `CC(C)CN(CCc1ccc(Cl)c(Cl)c1)C[C@H](O)COc1ccc(NS(C)(=O)=O)cc1` [Compound 93-97], the “Injured paw - von Frey threshold” value turned out to be 1.6 ± 0.3 in series [4] (30 mg/kg i.p., 30 min); 1.1 ± 0.1 in series [4] (30 mg/kg i.p., 60 min); 0.9 ± 0.1 in [4] (30 mg/kg i.p., 120 min); 1.0 ± 0.2 in series [4] (30 mg/kg i.p., 240 min); 1.9 ± 0.2 in series [4] (30 mg/kg i.p., Baseline); 1.1 ± 0.2 in series [4] (100 mg/kg i.p., 30 min). In addition, the “Injured paw - von Frey threshold” value stood at 1.4 ± 0.3 in series [4] (100 mg/kg i.p., 60 min); 1.0 ± 0.1 in series [4] (100 mg/kg i.p., 120 min); 0.8 ± 0.2 in [4] (100 mg/kg i.p., 240 min); 1.2 ± 0.1 in series [4] (100 mg/kg i.p., Baseline). Further, the “effect on von Frey thresholds measured in the normal paw” value in series [4] (30 and 100 mg/kg i.p.) is listed as “no effect on normal paw”. The “analgesic effect / attenuation of mechanical allodynia, injured paw” value in series [4] (30 and 100 mg/kg i.p., any time point studied) is on record as “no analgesic effect; also recorded: failed to attenuate mechanical allodynia”. Also, the “Side Effects: stretching/writhing” value in series [5] (30 mg/kg i.p.) is 2/10 stretching/writhing (for first 5 min).
In the case of `NCC1(CC(=O)O)CCCCC1` [Gabapentin, reference compound], the “Injured paw - von Frey threshold” value is reported as 6.0 ± 1.1 in series [4] (100 mg/kg i.p., 30 min); 11.1 ± 1.5 in series [4] (100 mg/kg i.p., 60 min); 13.6 ± 0.9 in series [4] (100 mg/kg i.p., 120 min); 6.6 ± 1.3 in series [4] (100 mg/kg i.p., 240 min); 1.9 ± 0.2 in series [4] (100 mg/kg i.p., Baseline). For the same compound, the “Side Effects: stretching/writhing” value in [5] (100 mg/kg i.p., for first 5 min) was 1/10 stretching/writhing (for first 5 min).
As to `CC(C(O)c1ccc(O)cc1)N1CCC(Cc2ccccc2)CC1` (stereo not shown) [Ifenprodil], the “pH dependence of potency” value in [6] is “more potent at lower pH (6.5) than higher pH (7.5)”. The “decrease in infarct volume” value in series [7] was 22%. The decrease infarct volume in [8] is reported as 42%.
Consider `OC(CN1CCC(Cc2ccc(F)cc2)CC1)c1ccc(Cl)cc1` (stereo not shown) [SL 82.0715], for which the “decrease in infarct volume” value in [9] is 36-48%.
For `CNC1(c2ccccc2Cl)CCCCC1=O` (stereo not shown) [ketamine], the “mean within the shaded area (criteria for improved drug performance) for NR1/NR2A” value at NR1/NR2A [2] was “fall within the shaded area”.
Consider (+)MK801 [reference compound], for which the “effects on locomotor activity (positive control)” value in [1] is “stereotypical biphasic effects on locomotor activity”; in [1] (listed as (+)MK-801), “induced locomotor activity at low doses and ataxia at higher doses”.
